From paper PMC12452633 (RSC Medicinal Chemistry, 2025)

Tests used:
Ku70/80 = Ku70/80 (Homo sapiens, UniProt P12956+P13010); assay: Ku–DNA binding EMSA; conditions: for IC50: Ku70/80 (IC50), purified Ku70/80, direct DNA binding activity by EMSA
DNA-PK = DNA-PK (Homo sapiens, UniProt P12956+P13010); assay: DNA-PK phosphoryl-transferase catalytic; format: biochemical
[1] = CF3 in place of CH3 on pyrazolone ring

Sequence of Ku70/80 (P12956 whole entry): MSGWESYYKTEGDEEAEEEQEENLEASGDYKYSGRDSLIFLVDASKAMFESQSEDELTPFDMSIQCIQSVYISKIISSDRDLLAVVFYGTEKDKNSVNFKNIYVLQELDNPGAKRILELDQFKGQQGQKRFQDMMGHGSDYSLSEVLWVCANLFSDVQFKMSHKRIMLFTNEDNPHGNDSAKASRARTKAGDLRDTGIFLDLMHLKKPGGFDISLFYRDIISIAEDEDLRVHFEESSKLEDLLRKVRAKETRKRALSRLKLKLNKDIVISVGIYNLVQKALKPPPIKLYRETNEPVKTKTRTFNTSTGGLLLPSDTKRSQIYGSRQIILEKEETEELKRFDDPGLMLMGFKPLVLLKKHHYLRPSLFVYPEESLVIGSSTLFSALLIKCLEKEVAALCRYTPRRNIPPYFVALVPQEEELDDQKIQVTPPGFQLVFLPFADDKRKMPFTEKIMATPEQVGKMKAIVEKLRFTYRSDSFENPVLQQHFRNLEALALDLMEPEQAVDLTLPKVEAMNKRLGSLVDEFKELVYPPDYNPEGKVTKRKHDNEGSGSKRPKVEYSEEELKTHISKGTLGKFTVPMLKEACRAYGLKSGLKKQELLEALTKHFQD
Sequence of Ku70/80 (P13010 whole entry): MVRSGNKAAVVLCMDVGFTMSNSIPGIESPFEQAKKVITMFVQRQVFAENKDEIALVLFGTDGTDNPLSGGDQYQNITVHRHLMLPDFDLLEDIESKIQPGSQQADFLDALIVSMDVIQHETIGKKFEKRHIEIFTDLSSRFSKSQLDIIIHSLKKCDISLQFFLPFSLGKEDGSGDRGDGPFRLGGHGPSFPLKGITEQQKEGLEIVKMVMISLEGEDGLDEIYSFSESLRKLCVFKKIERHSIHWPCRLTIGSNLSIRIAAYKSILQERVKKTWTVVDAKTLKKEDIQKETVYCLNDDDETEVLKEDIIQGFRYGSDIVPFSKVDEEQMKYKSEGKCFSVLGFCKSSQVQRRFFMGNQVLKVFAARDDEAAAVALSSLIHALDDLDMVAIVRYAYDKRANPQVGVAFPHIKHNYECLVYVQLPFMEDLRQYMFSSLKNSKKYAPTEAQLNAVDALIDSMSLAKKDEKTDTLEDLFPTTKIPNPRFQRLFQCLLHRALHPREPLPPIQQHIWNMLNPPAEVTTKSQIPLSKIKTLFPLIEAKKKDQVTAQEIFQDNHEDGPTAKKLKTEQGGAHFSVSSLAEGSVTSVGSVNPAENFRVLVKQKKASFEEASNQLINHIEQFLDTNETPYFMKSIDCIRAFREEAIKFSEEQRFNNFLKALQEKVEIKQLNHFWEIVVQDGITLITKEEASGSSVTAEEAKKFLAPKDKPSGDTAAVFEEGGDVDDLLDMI
Sequence of DNA-PK (P12956 whole entry): as the sequence (P12956 whole entry) above
Sequence of DNA-PK (P13010 whole entry): as the sequence (P13010 whole entry) above

| SMILES | IC50 (Ku70/80) | IC50 (DNA-PK) | increase in Ku inhibitory activity (Ku70/80; [1]) | increase in DNA-PK inhibitory activity (DNA-PK; [1]) | Ku inhibitory activity (qualitative) (Ku70/80; carboxylic acid replaced by nitrile) |
| --- | --- | --- | --- | --- | --- |
| O=C(O)c1cccc(N2N=C(C(F)(F)F)/C(=C/c3ccc(-c4ccc(Cl)c(C(=O)O)c4)o3)C2=O)c1 [Compound 16, (Z)-5-(5-((1-(3-carboxyphenyl)-5-oxo-3-(trifluoromethyl)-1,5-dihydro-4H-pyrazol-4-ylidene)methyl)furan-2-yl)-2-chlorobenzoic acid] | 16.4 ± 3.94 µM | – | – | – | – |
| CC1=NN(c2cccc(C(=O)O)c2)C(=O)/C1=C\c1ccc(-c2ccc(Cl)c(C(=O)NCC3CCCCC3)c2)o1 [Compound 39, (Z)-3-(4-((5-(4-Chloro-3-((cyclohexylmethyl)carbamoyl)phenyl)furan-2-yl)methylene)-3-methyl-5-oxo-4,5-dihydro-1H-pyrazol-1-yl)benzoic acid] | 22.6 ± 4.4 µM | – | – | – | – |
| COc1cccc(NC(=O)c2cc(-c3ccc(/C=C4\C(=O)N(c5ccc(C(=O)O)cc5)N=C4C)s3)ccc2Cl)c1 [Compound 41, (Z)-4-(4-((5-(4-Chloro-3-((3-methoxyphenyl)carbamoyl)phenyl)thiophen-2-yl)methylene)-3-methyl-5-oxo-4,5-dihydro-1H-pyrazol-1-yl)benzoic acid] | 9.04 ± 0.36 µM | 0.53 ± 0.07 µM | – | – | – |
| CC1=NN(c2cccc(C(=O)O)c2)C(=O)/C1=C\c1ccc(-c2ccc(Cl)c(C(=O)NCC3CC3)c2)s1 [Compound 42, (Z)-3-(4-((5-(4-Chloro-3-((cyclopropylmethyl)carbamoyl)phenyl)thiophen-2-yl)methylene)-3-methyl-5-oxo-4,5-dihydro-1H-pyrazol-1-yl)benzoic acid] | 11.1 ± 0.76 µM | 3.04 ± 0.7 µM | – | – | – |
| CC1=NN(c2cccc(C(=O)O)c2)C(=O)/C1=C\c1ccc(-c2ccc(Cl)c(C(=O)NCc3ccc(F)cc3)c2)s1 [Compound 43, (Z)-3-(4-((5-(4-Chloro-3-((4-fluorobenzyl)carbamoyl)phenyl)thiophen-2-yl)methylene)-3-methyl-5-oxo-4,5-dihydro-1H-pyrazol-1-yl)benzoic acid] | 10.1 ± 1.4 µM | 3.24 µM | – | – | – |
| COc1cccc(NC(=O)c2cc(-c3ccc(/C=C4\C(=O)N(c5cccc(C(=O)O)c5)N=C4C)[nH]3)ccc2Cl)c1 [Compound 44, (Z)-3-(4-((5-(4-Chloro-3-((3-methoxyphenyl)carbamoyl)phenyl)-1H-pyrrol-2-yl)methylene)-3-methyl-5-oxo-4,5-dihydro-1H-pyrazol-1-yl)benzoic acid] | 9.77 ± 4.16 µM | 1.57 ± 0.73 µM | – | – | – |
| COc1cccc(CNC(=O)c2cc(-c3ccc(/C=C4\C(=O)N(c5ccc(C(=O)O)cc5)N=C4C)o3)ccc2Cl)c1 [Compound 47, (Z)-4-(4-((5-(4-Chloro-3-((3-methoxybenzyl)carbamoyl)phenyl)furan-2-yl)methylene)-3-methyl-5-oxo-4,5-dihydro-1H-pyrazol-1-yl)benzoic acid] | > 25 µM | 0.48 ± 0.048 µM | – | – | – |
| CC1=NN(c2ccc(C(=O)O)cc2)C(=O)/C1=C\c1ccc(-c2ccc(Cl)c(C(=O)NCc3ccccc3)c2)o1 [Compound 48, (Z)-4-(4-((5-(3-(Benzylcarbamoyl)-4-chlorophenyl)furan-2-yl)methylene)-3-methyl-5-oxo-4,5-dihydro-1H-pyrazol-1-yl)benzoic acid] | 22.4 ± 4.19 µM | 0.48 ± 0.016 µM | – | – | – |
| CC1=NN(c2ccc(C(=O)O)cc2)C(=O)/C1=C\c1ccc(-c2ccc(Cl)c(C(=O)NCc3cccnc3)c2)o1 [Compound 49, (Z)-4-(4-((5-(4-Chloro-3-((pyridin-3-ylmethyl)carbamoyl)phenyl)furan-2-yl)methylene)-3-methyl-5-oxo-4,5-dihydro-1H-pyrazol-1-yl)benzoic acid] | > 25 µM | 2.5 µM | – | – | – |
| O=C(O)c1cccc(N2N=C(C(F)(F)F)/C(=C/c3ccc(-c4ccc(Cl)c(C(=O)NCC5CC5)c4)o3)C2=O)c1 [Compound 51, (Z)-3-(4-((5-(4-Chloro-3-((cyclopropylmethyl)carbamoyl)phenyl)furan-2-yl)methylene)-5-oxo-3-(trifluoromethyl)-4,5-dihydro-1H-pyrazol-1-yl)benzoic acid] | 11.4 ± 8.26 µM | 0.35 µM | – | – | – |
| O=C(O)c1cccc(N2N=C(C(F)(F)F)/C(=C/c3ccc(-c4ccc(Cl)c(C(=O)NCc5ccc(F)cc5)c4)o3)C2=O)c1 [Compound 52, (Z)-3-(4-((5-(4-Chloro-3-((4-fluorobenzyl)carbamoyl)phenyl)furan-2-yl)methylene)-5-oxo-3-(trifluoromethyl)-4,5-dihydro-1H-pyrazol-1-yl)benzoic acid] | 9.15 ± 0.68 µM | 0.25 µM | – | – | – |
| COc1ccc(NC(=O)c2cc(-c3ccc(CC4C(=O)N(c5cccc(C(=O)O)c5)N=C4C)o3)ccc2Cl)cc1OC (centres unmarked) [Compound 54, 3-(4-((5-(4-Chloro-3-((3,4-dimethoxyphenyl)carbamoyl)phenyl)furan-2-yl)methyl)-3-methyl-5-oxo-4,5-dihydro-1H-pyrazol-1-yl)benzoic acid] | 9.97 ± 0.4 µM | 1.12 ± 0.17 µM | – | – | – |
| COc1cccc(CNC(=O)c2cc(-c3ccc(CC4C(=O)N(c5ccc(C(=O)O)cc5)N=C4C)o3)ccc2Cl)c1 (centres unmarked) [Compound 56, 4-(4-((5-(4-Chloro-3-((3-methoxybenzyl)carbamoyl)phenyl)furan-2-yl)methyl)-3-methyl-5-oxo-4,5-dihydro-1H-pyrazol-1-yl)benzoic acid] | 12.4 ± 3.8 µM | 0.49 ± 0.08 µM | – | – | – |
| O=C(O)c1cccc(N2N=C(C(F)(F)F)C(Cc3ccc(-c4ccc(Cl)c(C(=O)NCC5CC5)c4)o3)C2=O)c1 (centres unmarked) [Compound 62, 3-(4-((5-(4-Chloro-3-((cyclopropylmethyl)carbamoyl)phenyl)furan-2-yl)methyl)-5-oxo-3-(trifluoromethyl)-4,5-dihydro-1H-pyrazol-1-yl)benzoic acid] | 14.2 ± 0.21 µM | – | – | – | – |
| COc1cccc(NC(=O)c2cc(-c3ccc(/C=C4\C(=O)N(c5ccc(S(N)(=O)=O)cc5)N=C4C)o3)ccc2Cl)c1 [Compound 67, (Z)-2-Chloro-N-(3-methoxyphenyl)-5-(5-((3-methyl-5-oxo-1-(4-sulfamoylphenyl)-1,5-dihydro-4H-pyrazol-4-ylidene)methyl)furan-2-yl)benzamide] | 11.3 ± 2.16 µM | 1.41 ± 0.27 µM | – | – | – |
| CC1=NN(c2ccc(S(N)(=O)=O)cc2)C(=O)/C1=C\c1ccc(-c2ccc(Cl)c(C(=O)NCC3CC3)c2)o1 [Compound 68, (Z)-2-Chloro-N-(cyclopropylmethyl)-5-(5-((3-methyl-5-oxo-1-(4-sulfamoylphenyl)-1,5-dihydro-4H-pyrazol-4-ylidene)methyl)furan-2-yl)benzamide] | > 25 µM | – | – | – | – |
| COc1cccc(NC(=O)c2cc(-c3ccc(/C=C4\C(=O)N(c5cccc(C#N)c5)N=C4C)o3)ccc2Cl)c1 [Compound 74, (Z)-2-chloro-5-(5-((1-(3-cyanophenyl)-3-methyl-5-oxo-1,5-dihydro-4H-pyrazol-4-ylidene)methyl)furan-2-yl)-N-(3-methoxyphenyl)benzamide] | > 25 µM | – | – | – | complete abolition of Ku inhibitory activity |

These reach a lower IC50 (Ku70/80). Values come first.

| IC50 (Ku70/80) | IC50 (DNA-PK) | increase in Ku inhibitory activity (Ku70/80; [1]) | increase in DNA-PK inhibitory activity (DNA-PK; [1]) | SMILES | Ku inhibitory activity (qualitative) (Ku70/80; carboxylic acid replaced by nitrile) |
| --- | --- | --- | --- | --- | --- |
| 8.22 ± 0.45 µM | 0.83 ± 0.09 µM | – | – | CC1=NN(c2cccc(C(=O)O)c2)C(=O)/C1=C\c1ccc(-c2ccc(Cl)c(C(=O)NCc3ccccc3)c2)o1 [Compound 37, (Z)-3-(4-((5-(3-(Benzylcarbamoyl)-4-chlorophenyl)furan-2-yl)methylene)-3-methyl-5-oxo-4,5-dihydro-1H-pyrazol-1-yl)benzoic acid] | – |
| 3.55 ± 0.4 µM | 1.74 ± 0.61 µM | – | – | CC1=NN(c2cccc(C(=O)O)c2)C(=O)/C1=C\c1ccc(-c2ccc(Cl)c(C(=O)NCc3ccccc3Cl)c2)o1 [Compound 38, (Z)-3-(4-((5-(4-Chloro-3-((2-chlorobenzyl)carbamoyl)phenyl)furan-2-yl)methylene)-3-methyl-5-oxo-4,5-dihydro-1H-pyrazol-1-yl)benzoic acid] | – |
| 7.18 ± 2.24 µM | 1.72 ± 0.18 µM | – | – | COc1cccc(NC(=O)c2cc(-c3ccc(/C=C4\C(=O)N(c5cccc(C(=O)O)c5)N=C4C)s3)ccc2Cl)c1 [Compound 40, (Z)-3-(4-((5-(4-Chloro-3-((3-methoxyphenyl)carbamoyl)phenyl)thiophen-2-yl)methylene)-3-methyl-5-oxo-4,5-dihydro-1H-pyrazol-1-yl)benzoic acid] | – |
| 6.9 ± 1 µM | 0.53 ± 0.18 µM | – | – | CC1=NN(c2cccc(C(=O)O)c2)C(=O)/C1=C\c1ccc(-c2ccc(Cl)c(C(=O)Nc3cccc(OC(F)(F)F)c3)c2)[nH]1 [Compound 45, (Z)-3-(4-((5-(4-Chloro-3-((3-(trifluoromethoxy)phenyl)carbamoyl)phenyl)-1H-pyrrol-2-yl)methylene)-3-methyl-5-oxo-4,5-dihydro-1H-pyrazol-1-yl)benzoic acid] | – |
| 3.36 ± 0.52 µM | – | 2 fold | ~20 fold | COc1cccc(NC(=O)c2cc(-c3ccc(/C=C4\C(=O)N(c5cccc(C(=O)O)c5)N=C4C(F)(F)F)o3)ccc2Cl)c1 [Compound 50, (Z)-3-(4-((5-(4-Chloro-3-((3-methoxyphenyl)carbamoyl)phenyl)furan-2-yl)methylene)-5-oxo-3-(trifluoromethyl)-4,5-dihydro-1H-pyrazol-1-yl)benzoic acid] | – |
| 7.67 ± 2.95 µM | 0.808 ± 0.037 µM | – | – | COc1cccc(NC(=O)c2cc(-c3ccc(CC4C(=O)N(c5ccc(C(=O)O)cc5)N=C4C)o3)ccc2Cl)c1 (centres unmarked) [Compound 55, 4-(4-((5-(4-Chloro-3-((3-methoxyphenyl)carbamoyl)phenyl)furan-2-yl)methyl)-3-methyl-5-oxo-4,5-dihydro-1H-pyrazol-1-yl)benzoic acid] | – |
| 6.09 ± 0.36 µM | 0.4 ± 0.04 µM | – | – | COc1cccc(NC(=O)c2cc(-c3ccc(CC4C(=O)N(c5cccc(C(=O)O)c5)N=C4C)s3)ccc2Cl)c1 (centres unmarked) [Compound 57, 3-(4-((5-(4-Chloro-3-((3-methoxyphenyl)carbamoyl)phenyl)thiophen-2-yl)methyl)-3-methyl-5-oxo-4,5-dihydro-1H-pyrazol-1-yl)benzoic acid] | – |
| 4.1 ± 0.3 µM | 2.66 ± 1.74 µM | – | – | CC1=NN(c2cccc(C(=O)O)c2)C(=O)C1Cc1ccc(-c2ccc(Cl)c(C(=O)NCc3ccc(F)cc3)c2)s1 (centres unmarked) [Compound 60, 3-(4-((5-(4-Chloro-3-((4-fluorobenzyl)carbamoyl)phenyl)thiophen-2-yl)methyl)-3-methyl-5-oxo-4,5-dihydro-1H-pyrazol-1-yl)benzoic acid] | – |
